Results taken from ChEMBL document CHEMBL5523757, “Discovery, Synthesis, and Activity Evaluation of Novel Five-Membered Sulfur-Containing Heterocyclic Nucleosides as Potential Anticancer Agents In Vitro and In Vivo” (J Med Chem, 2024).

Columns and labels:
Assay type in all cases: functional, cell-based
[1] = test system: MCF7; test: Antiproliferative activity against human MCF7 cells assessed as inhibition of cell growth incubated for 48 hrs by CCK-8 assay; settings: Homo sapiens, MCF7, 48 h
[2] = test system: HCT-116; test: Antiproliferative activity against human HCT-116 cells assessed as inhibition of cell growth incubated for 48 hrs by CCK-8 assay; settings: Homo sapiens, HCT-116, 48 h
[3] = test system: HeLa; test: Antiproliferative activity against human HeLa cells assessed as inhibition of cell growth incubated for 48 hrs by CCK-8 assay; settings: Homo sapiens, HeLa, 48 h
[4] = test system: HepG2; test: Antiproliferative activity against human HepG2 cells assessed as inhibition of cell growth incubated for 48 hrs by CCK-8 assay; settings: Homo sapiens, HepG2, 48 h
[5] = test system: A549; test: Antiproliferative activity against human A549 cells assessed as inhibition of cell growth incubated for 48 hrs by CCK-8 assay; settings: Homo sapiens, A549, 48 h
[6] = test system: PANC-1; test: Antiproliferative activity against human PANC-1 cells assessed as inhibition of cell growth incubated for 48 hrs by CCK-8 assay; settings: Homo sapiens, PANC-1, 48 h

SMILES | IC50 [1] | IC50 [2] | IC50 [3] | IC50 [4] | IC50 [5] | IC50 [6]
CCOC(=O)C[C@H]1CSC[C@]1(C(=O)OCC)n1cnc2c(OCc3ccccc3)ncnc21 (racemic) | 12.7 µM | 13.2 µM | 13.7 µM |  |  | 
CCOC(=O)C[C@H]1CSC[C@]1(C(=O)OCC)n1cnc2c(OCC)ncnc21 (racemic) | > 50 µM | > 50 µM | > 50 µM |  |  | 
CCOC(=O)C[C@H]1CSC[C@]1(C(=O)OCC)n1cnc2c(Cl)ncnc21 (racemic) | 12 µM | 15.5 µM | 6.81 µM |  |  | 
CCOC(=O)C[C@@H]1CSC[C@]1(C(=O)OCC)n1cnc2c(N3CCCC3)ncnc21 (racemic) | > 50 µM | > 50 µM | > 50 µM |  |  | 
CCOC(=O)C[C@H]1CSC[C@]1(C(=O)OCC)n1cnc2c(N3CCCCC3)nc(Cl)nc21 (racemic) | > 50 µM | 22.6 µM | 22.4 µM |  |  | 
CCOC(=O)C[C@H]1CSC[C@]1(C(=O)OCC)n1cnc2cnc(Cl)nc21 (racemic) | > 50 µM | > 50 µM | > 50 µM |  |  | 
CCOC(=O)C[C@@H]1CSC[C@]1(C(=O)OCC)n1cnc2c(Cl)nc(Cl)nc21 (racemic) | 4.06 µM | 6.89 µM | 9.5 µM |  |  | 
CCOC(=O)C[C@@H]1CSC[C@]1(C(=O)OCC)n1cnc2c(N(C)C)ncnc21 (racemic) | > 50 µM | > 50 µM | > 50 µM |  |  | 
CCOC(=O)C[C@H]1CSC[C@]1(C(=O)OCC)n1cnc2c(N(C)C)ncnc21 (racemic) | > 50 µM | > 50 µM | > 50 µM |  |  | 
CCOC(=O)C[C@@H]1CSC[C@]1(C(=O)OCC)n1cnc2c(OCC)ncnc21 (racemic) | > 50 µM | 19.8 µM | > 50 µM |  |  | 
CCOC(=O)C[C@H]1CSC[C@]1(C(=O)OCC)n1cnc2c(N3CCCC3)nc(Cl)nc21 (racemic) | 38.3 µM | 46.6 µM | > 50 µM |  |  | 
CCOC(=O)C[C@H]1CSC[C@]1(C(=O)OCC)n1cnc2c(-c3ccccc3)ncnc21 (racemic) | > 50 µM | 17.3 µM | 26.2 µM |  |  | 
CCOC(=O)C[C@@H]1CSC[C@]1(C(=O)OCC)n1cnc2c(OC)ncnc21 (racemic) | > 50 µM | > 50 µM | > 50 µM |  |  | 
CCOC(=O)C[C@@H]1CSC[C@]1(C(=O)OCC)n1cnc2c(OCc3ccccc3)ncnc21 (racemic) | > 50 µM | > 50 µM | > 50 µM |  |  | 
CCOC(=O)C[C@H]1CSC[C@]1(C(=O)OCC)n1cnc2c(N3CCCC3)ncnc21 (racemic) | > 50 µM | > 50 µM | > 50 µM |  |  | 
CCCSc1ncnc2c1ncn2[C@@]1(C(=O)OCC)CSC[C@H]1CC(=O)OCC (racemic) | 23.5 µM | 38.5 µM | > 50 µM |  |  | 
CCOC(=O)C[C@@H]1CSC[C@]1(C(=O)OCC)n1cnc2c(N3CCCCC3)nc(Cl)nc21 (racemic) | 34 µM | > 50 µM | > 50 µM |  |  | 
CCOC(=O)C[C@@H]1CSC[C@@]1(C(=O)OCC)n1cnc2c(Cl)nc(Cl)nc21 | 4.54 µM | 3.69 µM | 2.78 µM | 23.8 µM | 41.4 µM | 11.1 µM
CCOC(=O)C[C@H]1CSC[C@]1(C(=O)OCC)n1cnc2cncnc21 (racemic) | > 50 µM | > 50 µM | > 50 µM |  |  | 
CCOC(=O)C[C@H]1CSC[C@]1(C(=O)OCC)n1cnc2c(N3CCCCC3)ncnc21 (racemic) | 23.8 µM | 22.8 µM | > 50 µM |  |  | 
CCOC(=O)C[C@@H]1CSC[C@]1(C(=O)OCC)n1cnc2c(N(CC)CC)ncnc21 (racemic) | > 50 µM | 41.5 µM | > 50 µM |  |  | 
O=c1[nH]cc(F)c(=O)[nH]1 [FLUOROURACIL] | 11.6 µM | 8.75 µM | 9.75 µM | 12.9 µM |  | 44.1 µM
